In patent US20120058989A1, “ANTIBACTERIAL FLUOROQUINOLONE ANALOGS” (Achaogen, Inc., priority 2008, published 2012):

Key:
Test in all cases: MIC, CLSI broth microdilution
Assay type in all cases: cell-based
[1] = test system: S. pneumoniae ASPN001 (Fluoroquinolone-susceptible, ATCC49619); settings: Table 2
In short: (§1)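 MICs were read after 20 hours at 35° C in ambient air, with a final inoculum of 5×10^5 CFU/mL from saline-suspended overnight colonies. Serial two-fold dilutions in Mueller Hinton Broth followed the CLSI reference method (M7-A7), with QC strains E. coli ATCC 25922, P. aeruginosa ATCC 27853 and S. aureus ATCC 29213.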

[2] = test system: A. baumannii AABA1065 (Fluoroquinolone-susceptible); settings: Table 2
In short: as §1

[3] = test system: S. aureus ASAU1031 (Fluoroquinolone-resistant); settings: Table 2
In short: as §1

[4] = test system: A. baumannii AABA1009 (Fluoroquinolone-resistant); settings: Table 2
In short: as §1

[5] = test system: S. aureus ASAU001 (Fluoroquinolone-susceptible, ATCC29213); settings: Table 2
In short: as §1

[6] = test system: P. aeruginosa APAE001 (Fluoroquinolone-susceptible, ATCC27853); settings: Table 2
In short: as §1

[7] = test system: E. coli AECO001 (Fluoroquinolone susceptible, ATCC25922); settings: Table 2, 35° C., 20 hours
In short: as §1

[8] = test system: S. pneumoniae ASPN1027 (Fluoroquinolone-resistant); settings: Table 2
In short: as §1

[9] = test system: E. coli AECO066 (Fluoroquinolone-resistant); settings: Table 2
In short: as §1

[10] = test system: P. aeruginosa APAE054 (Fluoroquinolone-resistant); settings: Table 2
In short: as §1

Row | MIC ASPN 001 [1] | MIC AABA 1065 [2] | MIC ASAU 1031 [3] | MIC AABA 1009 [4] | MIC ASAU 001 [5] | MIC APAE 001 [6] | MIC AECO 001 [7] | MIC ASPN 1027 [8] | MIC AECO 066 [9] | MIC APAE 054 [10] | Compound
1 | C (MIC's of greater than 8.0 μg/mL = C) | C (MIC's of greater than 8.0 μg/mL = C) | C (MIC's of greater than 8.0 μg/mL = C) | C (MIC's of greater than 8.0 μg/mL = C) | C (MIC's of greater than 8.0 μg/mL = C) | C (MIC's of greater than 8.0 μg/mL = C) | C (MIC's of greater than 8.0 μg/mL = C) | C (MIC's of greater than 8.0 μg/mL = C) | C (MIC's of greater than 8.0 μg/mL = C) | C (MIC's of greater than 8.0 μg/mL = C) | O=C(O)c1cn(C2CC2)c2c3c(c(F)cc2c1=O)N1C(=O)CC[C@H]1CCC3 [23/14, (7aR)-4-Cyclopropyl-12-fluoro-1,10-dioxo-4,5,6,7,7a,8,9,10-octahydro-1H-pyrrolo[1′,2′:1,7]azepino[2,3-h]quinoline-2-carboxylic acid]

Row | Compound | MIC ASPN 001 [1] | MIC AABA 1065 [2] | MIC ASAU 1031 [3] | MIC AABA 1009 [4] | MIC ASAU 001 [5] | MIC APAE 001 [6] | MIC AECO 001 [7] | MIC ASPN 1027 [8] | MIC AECO 066 [9] | MIC APAE 054 [10]
2 | O=C(O)c1cn(C2CC2)c2c3c(c(F)cc2c1=O)N1C(=O)CC[C@H]1CC=C3 [23/12, (7aS)-4-Cyclopropyl-12-fluoro-1,10-dioxo-4,7,7a,8,9,10-hexahydro-1H-pyrrolo[1′,2′:1,7]azepino[2,3-h]quino-line-2-carboxylic acid] | C (MIC's of greater than 8.0 μg/mL = C) | C (MIC's of greater than 8.0 μg/mL = C) | C (MIC's of greater than 8.0 μg/mL = C) | C (MIC's of greater than 8.0 μg/mL = C) | B (MIC's of greater than 1.0 μg/mL to 8.0 μg/mL = B) | C (MIC's of greater than 8.0 μg/mL = C) | C (MIC's of greater than 8.0 μg/mL = C) | C (MIC's of greater than 8.0 μg/mL = C) | C (MIC's of greater than 8.0 μg/mL = C) | C (MIC's of greater than 8.0 μg/mL = C)
3 | N[C@H]1C[C@H]2CC=Cc3c(ccc4c(=O)c(C(=O)O)cn(C5CC5)c34)N2C1 [25/14, (7aR,9S)-9-amino-4-cyclopropyl-1-oxo-4,7,7a,8,9,10-hexahydro-1H-pyrrolo[1′,2′:1,7]azepino[2,3-h]quinoline-2-carboxylic Acid] | A (MIC's of 1.0 μg/mL or less = A) | A (MIC's of 1.0 μg/mL or less = A) | C (MIC's of greater than 8.0 μg/mL = C) | C (MIC's of greater than 8.0 μg/mL = C) | A (MIC's of 1.0 μg/mL or less = A) | B (MIC's of greater than 1.0 μg/mL to 8.0 μg/mL = B) | A (MIC's of 1.0 μg/mL or less = A) | B (MIC's of greater than 1.0 μg/mL to 8.0 μg/mL = B) | C (MIC's of greater than 8.0 μg/mL = C) | C (MIC's of greater than 8.0 μg/mL = C)
4 | N[C@@H]1CCN2c3c(F)cc4c(=O)c(C(=O)O)cn(C5CC5)c4c3C=NC[C@H]12.O=C(O)C(F)(F)F [26/16, (3aR,4R)-4-Amino-13-cyclopropyl-8-fluoro-10-oxo-3a,4,5,6,10,13-hexahydro-3H-pyrrolo[2′,1′:3,4][1,4]diazepino[5,6-h]quinoline-11-carboxylic acid trifluoroacetate] | B (MIC's of greater than 1.0 μg/mL to 8.0 μg/mL = B) | B (MIC's of greater than 1.0 μg/mL to 8.0 μg/mL = B) | C (MIC's of greater than 8.0 μg/mL = C) | C (MIC's of greater than 8.0 μg/mL = C) | B (MIC's of greater than 1.0 μg/mL to 8.0 μg/mL = B) | B (MIC's of greater than 1.0 μg/mL to 8.0 μg/mL = B) | A (MIC's of 1.0 μg/mL or less = A) | C (MIC's of greater than 8.0 μg/mL = C) | C (MIC's of greater than 8.0 μg/mL = C) | C (MIC's of greater than 8.0 μg/mL = C)
5 | N[C@@H]1CCN2c3c(F)cc4c(=O)c(C(=O)O)cn(C5CC5)c4c3CNC[C@H]12.O=C(O)C(F)(F)F.O=C(O)C(F)(F)F [26/17, (3aR,4R)-4-Amino-13-cyclopropyl-8-fluoro-10-oxo-2,3,3a,4,5,6,10,13-octahydro-1H-pyrrolo[2′,1′:3,4][1,4]diazepino[5,6-h]quinoline-11-carboxylic acid bis(trifluoroacetate)] | B (MIC's of greater than 1.0 μg/mL to 8.0 μg/mL = B) | B (MIC's of greater than 1.0 μg/mL to 8.0 μg/mL = B) | C (MIC's of greater than 8.0 μg/mL = C) | C (MIC's of greater than 8.0 μg/mL = C) | B (MIC's of greater than 1.0 μg/mL to 8.0 μg/mL = B) | B (MIC's of greater than 1.0 μg/mL to 8.0 μg/mL = B) | A (MIC's of 1.0 μg/mL or less = A) | C (MIC's of greater than 8.0 μg/mL = C) | C (MIC's of greater than 8.0 μg/mL = C) | C (MIC's of greater than 8.0 μg/mL = C)
6 | O=C(O)c1cn(C2CC2)c2c3c(c(F)cc2c1=O)N1CCCC1CC=C3 (stereo not shown) [27/5, 4-Cyclopropyl-12-fluoro-1-oxo-4,7,7a,8,9,10-hexahydro-1H-pyrrolo[1′,2′:1,7]azepino[2,3-h]quinoline-2-carboxylic acid] | A (MIC's of 1.0 μg/mL or less = A) | B (MIC's of greater than 1.0 μg/mL to 8.0 μg/mL = B) | B (MIC's of greater than 1.0 μg/mL to 8.0 μg/mL = B) | C (MIC's of greater than 8.0 μg/mL = C) | A (MIC's of 1.0 μg/mL or less = A) | C (MIC's of greater than 8.0 μg/mL = C) | A (MIC's of 1.0 μg/mL or less = A) | C (MIC's of greater than 8.0 μg/mL = C) | C (MIC's of greater than 8.0 μg/mL = C) | C (MIC's of greater than 8.0 μg/mL = C)
7 | O=C(O)c1cn(C2CC2)c2c3c(c(F)cc2c1=O)N1CCCC1CCC3 (stereo not shown) [27/7, 4-Cyclopropyl-12-fluoro-1-oxo-4,5,6,7,7a,8,9,10-octahydro-1H-pyrrolo[1′,2′:1,7]azepino[2,3-h]quinoline-2-carboxylic acid] | B (MIC's of greater than 1.0 μg/mL to 8.0 μg/mL = B) | C (MIC's of greater than 8.0 μg/mL = C) | B (MIC's of greater than 1.0 μg/mL to 8.0 μg/mL = B) | C (MIC's of greater than 8.0 μg/mL = C) | A (MIC's of 1.0 μg/mL or less = A) | C (MIC's of greater than 8.0 μg/mL = C) | B (MIC's of greater than 1.0 μg/mL to 8.0 μg/mL = B) | C (MIC's of greater than 8.0 μg/mL = C) | C (MIC's of greater than 8.0 μg/mL = C) | C (MIC's of greater than 8.0 μg/mL = C)
